# Results taken from publication PMC5218480 (PLoS ONE, 2017).
# System: MV-4-11 cells
# Assay: Gene expression microarray analysis (Affymetrix PrimeView) and GSEA
# Type: cell-based, human
# Set-up: RFU PODN (11730768_x_at) / Fold change /veh PODN (11730768_x_at) / RFU LINC00158 (11744669_a_at) / Fold change /veh LINC00158 (11744669_a_at) / RFU DUSP10 (11751237_a_at) / Fold change /veh DUSP10 (11751237_a_at) / RFU ID3 (11757404_x_at) / Fold change /veh ID3 (11757404_x_at) / RFU PLEKHG5 (11737974_s_at) / Fold change /veh PLEKHG5 (11737974_s_at) / RFU LRRC4B (11730491_at) / Fold change /veh LRRC4B (11730491_at) / RFU GIMAP4 (11747438_a_at) / Fold change /veh GIMAP4 (11747438_a_at) / RFU KRT8 (11758183_x_at) / Fold change /veh KRT8 (11758183_x_at) / RFU CNN1 (11734310_a_at) / Fold change /veh CNN1 (11734310_a_at) / RFU VPS37D (11726825_at) / Fold change /veh VPS37D (11726825_at) / RFU C10orf10 (11716522_x_at) / Fold change /veh C10orf10 (11716522_x_at) / RFU KIR2DL2 /// KIR2DL4 /// KIR2DL5A /// KIR2DL5B /// KIR2DS1 /// KIR2DS2 /// KIR2DS3 /// KIR2DS4 /// KIR3DL3 /// KIR3DL3 /// KIR3DS1 (11738374_at) / Fold change /veh KIR2DL2 /// KIR2DL4 /// KIR2DL5A /// KIR2DL5B /// KIR2DS1 /// KIR2DS2 /// KIR2DS3 /// KIR2DS4 /// KIR3DL3 /// KIR3DL3 /// KIR3DS1 (11738374_at) / RFU C1QL1 (11718748_at) / Fold change /veh C1QL1 (11718748_at) / RFU TMPRSS4 (11747572_a_at) / Fold change /veh TMPRSS4 (11747572_a_at) / RFU HAMP (11756126_x_at) / Fold change /veh HAMP (11756126_x_at) / RFU RNFT2 (11725882_a_at) / Fold change /veh RNFT2 (11725882_a_at) / RFU NR4A2 (11747474_a_at) / Fold change /veh NR4A2 (11747474_a_at) / RFU ABCC12 (11746883_a_at) / Fold change /veh ABCC12 (11746883_a_at) / RFU TMEM136 (11760407_x_at) / Fold change /veh TMEM136 (11760407_x_at) / RFU CLDN22 /// WWC2 (11732394_at) / Fold change /veh CLDN22 /// WWC2 (11732394_at) / RFU HLA-DPB1 (11760878_x_at) / Fold change /veh HLA-DPB1 (11760878_x_at) / RFU SPINT1 (11716480_a_at) / Fold change /veh SPINT1 (11716480_a_at) / RFU GAP43 (11754022_s_at) / Fold change /veh GAP43 (11754022_s_at) / RFU A4GNT (11735810_at) / Fold change /veh A4GNT (11735810_at) / RFU PRB3 (11715151_x_at) / Fold change /veh PRB3 (11715151_x_at) / RFU TUBB4B (11761932_at) / Fold change /veh TUBB4B (11761932_at) / RFU CAPN14 (11732068_a_at) / Fold change /veh CAPN14 (11732068_a_at) / RFU TMCC2 (11721928_a_at) / Fold change /veh TMCC2 (11721928_a_at) / RFU IRGQ (11745062_a_at) / Fold change /veh IRGQ (11745062_a_at) / RFU FAM174B (11720279_a_at) / Fold change /veh FAM174B (11720279_a_at) / RFU TMPRSS4 (11748680_a_at) / Fold change /veh TMPRSS4 (11748680_a_at) / RFU FAM212B (11763350_a_at) / Fold change /veh FAM212B (11763350_a_at) / RFU PLEKHG5 (11743358_a_at) / Fold change /veh PLEKHG5 (11743358_a_at) / RFU ZSCAN30 (11745921_a_at) / Fold change /veh ZSCAN30 (11745921_a_at) / RFU CMKLR1 (11741424_a_at) / Fold change /veh CMKLR1 (11741424_a_at) / RFU LOC101060620 /// MAPK8IP1 (11723275_at) / Fold change /veh LOC101060620 /// MAPK8IP1 (11723275_at) / RFU SPTSSB (11747773_x_at) / Fold change /veh SPTSSB (11747773_x_at) / RFU PRSS12 (11739890_at) / Fold change /veh PRSS12 (11739890_at) / RFU BIN1 (11741810_x_at) / Fold change /veh BIN1 (11741810_x_at) / RFU WNT11 (11732464_a_at) / Fold change /veh WNT11 (11732464_a_at) / RFU C10orf10 (11716521_a_at) / Fold change /veh C10orf10 (11716521_a_at) / RFU C5orf56 (11738089_at) / Fold change /veh C5orf56 (11738089_at) / RFU CYB561 (11721691_x_at) / Fold change /veh CYB561 (11721691_x_at) / RFU ANKRD19P (11752326_a_at) / Fold change /veh ANKRD19P (11752326_a_at) / RFU OR2T12 /// OR2T33 /// OR2T8 (11738714_s_at) / Fold change /veh OR2T12 /// OR2T33 /// OR2T8 (11738714_s_at) / RFU VCAN (11748164_a_at) / Fold change /veh VCAN (11748164_a_at) / RFU JSRP1 (11732532_at) / Fold change /veh JSRP1 (11732532_at) / RFU KRTAP10-11 (11738290_x_at) / Fold change /veh KRTAP10-11 (11738290_x_at) / RFU MYO3A (11730013_a_at) / Fold change /veh MYO3A (11730013_a_at) / RFU EBF3 (11725865_a_at) / Fold change /veh EBF3 (11725865_a_at) / RFU CAMK2N1 (11719241_x_at) / Fold change /veh CAMK2N1 (11719241_x_at) / RFU C5orf56 (11738088_a_at) / Fold change /veh C5orf56 (11738088_a_at) / RFU OLFML3 (11715873_a_at) / Fold change /veh OLFML3 (11715873_a_at) / RFU LOC100653217 /// NTM (11731650_a_at) / Fold change /veh LOC100653217 /// NTM (11731650_a_at) / RFU MAPK11 (11762145_a_at) / Fold change /veh MAPK11 (11762145_a_at) / RFU FIZ1 (11724087_x_at) / Fold change /veh FIZ1 (11724087_x_at) / RFU OASL (11726364_x_at) / Fold change /veh OASL (11726364_x_at) / RFU SOX15 (11748057_x_at) / Fold change /veh SOX15 (11748057_x_at) / RFU CD79A (11719716_a_at) / Fold change /veh CD79A (11719716_a_at) / RFU HIST1H1D (11736915_at) / Fold change /veh HIST1H1D (11736915_at) / RFU CASKIN2 (11723855_a_at) / Fold change /veh CASKIN2 (11723855_a_at) / RFU LOC730098 (11760151_x_at) / Fold change /veh LOC730098 (11760151_x_at) / RFU OR4N2 (11742367_at) / Fold change /veh OR4N2 (11742367_at) / RFU PRRT2 (11749266_a_at) / Fold change /veh PRRT2 (11749266_a_at) / RFU SNX32 (11753110_a_at) / Fold change /veh SNX32 (11753110_a_at) / RFU CDHR5 (11726645_a_at) / Fold change /veh CDHR5 (11726645_a_at) / RFU RCAN1 (11760418_a_at) / Fold change /veh RCAN1 (11760418_a_at) / RFU FAM167A (11723789_a_at) / Fold change /veh FAM167A (11723789_a_at) / RFU FAM26E (11764081_at) / Fold change /veh FAM26E (11764081_at) / RFU ISYNA1 (11749810_s_at) / Fold change /veh ISYNA1 (11749810_s_at) / RFU ACY1 (11761880_at) / Fold change /veh ACY1 (11761880_at) / RFU 11764098_at / Fold change /veh 11764098_at / RFU SAMD14 (11745864_x_at) / Fold change /veh SAMD14 (11745864_x_at) / RFU NPB (11741838_a_at) / Fold change /veh NPB (11741838_a_at) / RFU TMPRSS6 (11731388_a_at) / Fold change /veh TMPRSS6 (11731388_a_at) / RFU KRTAP10-2 (11738614_at) / Fold change /veh KRTAP10-2 (11738614_at) / RFU ARHGAP8 /// PRR5-ARHGAP8 (11727945_x_at) / Fold change /veh ARHGAP8 /// PRR5-ARHGAP8 (11727945_x_at) / RFU KRTAP5-7 /// NADSYN1 (11734609_at) / Fold change /veh KRTAP5-7 /// NADSYN1 (11734609_at) / RFU RASL12 (11751679_a_at) / Fold change /veh RASL12 (11751679_a_at) / RFU CDKN2B (11736163_a_at) / Fold change /veh CDKN2B (11736163_a_at) / RFU PRF1 (11729649_at) / Fold change /veh PRF1 (11729649_at) / RFU, ZNF638 /// ZNF638-IT1 / Fold change vs veh, ZNF638 /// ZNF638-IT1 / RFU, PANK3 / Fold change vs veh, PANK3 / RFU, SH3YL1 / Fold change vs veh, SH3YL1 / RFU, ZEB2 / Fold change vs veh, ZEB2 / RFU, NRIP1 / Fold change vs veh, NRIP1 / RFU, PTTG1IP / Fold change vs veh, PTTG1IP / RFU, CAPN2 / Fold change vs veh, CAPN2 / RFU, MED14 / Fold change vs veh, MED14 / RFU, SNORA58 / Fold change vs veh, SNORA58 / RFU, C1orf63 / Fold change vs veh, C1orf63 / RFU, LRRFIP1 / Fold change vs veh, LRRFIP1 / RFU, NDUFAF7 / Fold change vs veh, NDUFAF7 / RFU, SLC12A2 / Fold change vs veh, SLC12A2 / RFU, IBTK / Fold change vs veh, IBTK / RFU, ESF1 / Fold change vs veh, ESF1 / Fold change vs veh, TMEM50B / RFU, TAOK1 / Fold change vs veh, TAOK1 / RFU, ACBD3 / Fold change vs veh, ACBD3 / RFU, TMA16 / Fold change vs veh, TMA16 / RFU, RWDD3 / Fold change vs veh, RWDD3 / RFU, BCAT1 / Fold change vs veh, BCAT1 / RFU, EDEM3 / Fold change vs veh, EDEM3 / RFU, TMEM33 / Fold change vs veh, TMEM33 / RFU, WDR75 / Fold change vs veh, WDR75 / RFU, AHCTF1 / Fold change vs veh, AHCTF1 / RFU, TFRC / Fold change vs veh, TFRC / RFU, ZDHHC17 / Fold change vs veh, ZDHHC17 / RFU, NOM1 / Fold change vs veh, NOM1 / RFU, ARL8B / Fold change vs veh, ARL8B / RFU, ZBTB11 / Fold change vs veh, ZBTB11 / RFU, TAMM41 / Fold change vs veh, TAMM41 / RFU, KIAA1704 /// LOC100996395 / Fold change vs veh, KIAA1704 /// LOC100996395 / RFU, ING1 / Fold change vs veh, ING1 / RFU, TRMT61B / Fold change vs veh, TRMT61B / RFU, FUBP3 / Fold change vs veh, FUBP3 / RFU, TP53 / Fold change vs veh, TP53 / RFU, TNKS2 / Fold change vs veh, TNKS2 / RFU, ZFP14 / Fold change vs veh, ZFP14 / RFU, ACTR2 / Fold change vs veh, ACTR2 / RFU, PPP3R1 / Fold change vs veh, PPP3R1 / RFU, PIK3R1 / Fold change vs veh, PIK3R1 / RFU, HNRNPA1 / Fold change vs veh, HNRNPA1 / RFU, RNF170 / Fold change vs veh, RNF170 / RFU, ZNF28 / Fold change vs veh, ZNF28 / RFU, RNGTT / Fold change vs veh, RNGTT / RFU, OGT / Fold change vs veh, OGT / RFU, BRD1 / Fold change vs veh, BRD1 / RFU, MARS / Fold change vs veh, MARS / RFU, ZNF655 / Fold change vs veh, ZNF655 / RFU, FAHD1 / Fold change vs veh, FAHD1 / RFU, BDP1 / Fold change vs veh, BDP1 / RFU, LRRCC1 / Fold change vs veh, LRRCC1 / RFU, ARID1A / Fold change vs veh, ARID1A / RFU, ZNF146 / Fold change vs veh, ZNF146 / RFU, ZNF330 / Fold change vs veh, ZNF330 / RFU, GPN3 / Fold change vs veh, GPN3 / RFU, C9orf123 / Fold change vs veh, C9orf123 / RFU, N4BP2L2 / Fold change vs veh, N4BP2L2 / RFU, ARFIP1 / Fold change vs veh, ARFIP1 / RFU, FAM179B / Fold change vs veh, FAM179B / RFU, BCL10 / Fold change vs veh, BCL10 / RFU, UHRF1BP1L / Fold change vs veh, UHRF1BP1L / RFU, BET1 / Fold change vs veh, BET1 / RFU, CNOT2 / Fold change vs veh, CNOT2 / RFU, ZNF268 / Fold change vs veh, ZNF268 / Fold change vs veh, ZNF507 / RFU, DGCR2 / Fold change vs veh, DGCR2 / RFU, WDSUB1 / Fold change vs veh, WDSUB1 / Fold change vs veh, HSP90B1 /// MIR3652 / RFU, ADSS / Fold change vs veh, ADSS / RFU, GK / Fold change vs veh, GK / RFU, ZNF148 / Fold change vs veh, ZNF148 / RFU, TAF9 / Fold change vs veh, TAF9 / RFU, SLC1A5 / Fold change vs veh, SLC1A5 / RFU, SLMO2 / Fold change vs veh, SLMO2 / RFU, ABCC4 / Fold change vs veh, ABCC4 / RFU, LOC101060439 /// RAP1B / Fold change vs veh, LOC101060439 /// RAP1B / RFU, RFX7 / Fold change vs veh, RFX7 / RFU, GTPBP10 / Fold change vs veh, GTPBP10 / RFU, CNEP1R1 / Fold change vs veh, CNEP1R1 / RFU, BIVM-ERCC5 /// ERCC5 / Fold change vs veh, BIVM-ERCC5 /// ERCC5 / RFU, ILF3 / Fold change vs veh, ILF3 / RFU 11762660_at / Fold change /veh 11762660_at / RFU VCAN (11757783_s_at) / Fold change /veh VCAN (11757783_s_at) / RFU DDX43 (11728927_at) / Fold change /veh DDX43 (11728927_at) / RFU KRT8 (11758188_x_at) / Fold change /veh KRT8 (11758188_x_at) / RFU NKD1 (11759106_at) / Fold change /veh NKD1 (11759106_at) / RFU SRD5A1 (11742802_a_at) / Fold change /veh SRD5A1 (11742802_a_at) / RFU TPSAB1 /// TPSB2 (11721975_s_at) / Fold change /veh TPSAB1 /// TPSB2 (11721975_s_at) / RFU GSTM3 (11746129_a_at) / Fold change /veh GSTM3 (11746129_a_at) / RFU IL23R (11737362_x_at) / Fold change /veh IL23R (11737362_x_at) / RFU TMEM51 (11727254_a_at) / Fold change /veh TMEM51 (11727254_a_at) / RFU PIWIL2 (11732686_x_at) / Fold change /veh PIWIL2 (11732686_x_at) / RFU ORM1 (11744905_x_at) / Fold change /veh ORM1 (11744905_x_at) / RFU CCDC152 (11743942_at) / Fold change /veh CCDC152 (11743942_at) / RFU ECM1 (11717891_a_at) / Fold change /veh ECM1 (11717891_a_at) / RFU IL23R (11748794_a_at) / Fold change /veh IL23R (11748794_a_at) / RFU TNFAIP8L3 (11732012_x_at) / Fold change /veh TNFAIP8L3 (11732012_x_at) / RFU MBOAT4 (11741988_at) / Fold change /veh MBOAT4 (11741988_at) / RFU 11764193_at / Fold change /veh 11764193_at / RFU TMEM53 (11763286_at) / Fold change /veh TMEM53 (11763286_at) / RFU MAGEB2 (11727129_at) / Fold change /veh MAGEB2 (11727129_at) / RFU TMEM200A (11744735_a_at) / Fold change /veh TMEM200A (11744735_a_at) / RFU CCDC152 (11751479_a_at) / Fold change /veh CCDC152 (11751479_a_at) / RFU FAM211A (11726209_a_at) / Fold change /veh FAM211A (11726209_a_at) / RFU RGS16 (11746705_a_at) / Fold change /veh RGS16 (11746705_a_at) / RFU VCAN (11755009_s_at) / Fold change /veh VCAN (11755009_s_at) / RFU RHOB (11743442_s_at) / Fold change /veh RHOB (11743442_s_at) / RFU RGS16 (11720943_a_at) / Fold change /veh RGS16 (11720943_a_at) / RFU RGS16 (11720944_at) / Fold change /veh RGS16 (11720944_at) / RFU, VPS4B / Fold change vs veh, VPS4B / RFU, CREB1 / Fold change vs veh, CREB1 / RFU, DNAJC13 / Fold change vs veh, DNAJC13 / RFU, GNAQ / Fold change vs veh, GNAQ / RFU, CDK5R1 / Fold change vs veh, CDK5R1 / RFU, ZRANB3 / Fold change vs veh, ZRANB3 / RFU, CUL4A / Fold change vs veh, CUL4A / RFU, CCNY / Fold change vs veh, CCNY / RFU, UFL1 / Fold change vs veh, UFL1 / RFU, COG3 / Fold change vs veh, COG3 / RFU, DIAPH2 / Fold change vs veh, DIAPH2 / RFU, SKA2 / Fold change vs veh, SKA2 / RFU, AFF3 / Fold change vs veh, AFF3 / RFU, LMF1 / Fold change vs veh, LMF1 / RFU, IPO11 / Fold change vs veh, IPO11 / RFU, DFFB / Fold change vs veh, DFFB / RFU, FOXP1 / Fold change vs veh, FOXP1 / RFU, CARD8 / Fold change vs veh, CARD8 / RFU, STRN3 / Fold change vs veh, STRN3 / RFU, ADK / Fold change vs veh, ADK / RFU, RASSF2 / Fold change vs veh, RASSF2 / RFU, WIPF1 / Fold change vs veh, WIPF1 / RFU, LARP1B / Fold change vs veh, LARP1B / RFU, RASA1 / Fold change vs veh, RASA1 / RFU, RB1 / Fold change vs veh, RB1 / RFU, PPFIA1 / Fold change vs veh, PPFIA1 / RFU, MAT2A / Fold change vs veh, MAT2A / RFU, CCT5 / Fold change vs veh, CCT5 / RFU, WDR92 / Fold change vs veh, WDR92 / RFU, CUX1 / Fold change vs veh, CUX1 / RFU, TTC7A / Fold change vs veh, TTC7A / RFU, TMEM135 / Fold change vs veh, TMEM135 / RFU, DEPTOR / Fold change vs veh, DEPTOR / RFU, CPM / Fold change vs veh, CPM / RFU, DNAJB6 / Fold change vs veh, DNAJB6 / RFU, CACNA2D3 / Fold change vs veh, CACNA2D3 / RFU, DTX4 / Fold change vs veh, DTX4 / RFU, TFCP2 / Fold change vs veh, TFCP2 / RFU, GMCL1 /// GMCL1P1 / Fold change vs veh, GMCL1 /// GMCL1P1 / RFU, AEBP2 / Fold change vs veh, AEBP2 / RFU, SNHG1 /// SNORD22 /// SNORD25 /// SNORD26 /// SNORD27 /// SNORD28 /// SNORD29 /// SNORD31 / Fold change vs veh, SNHG1 /// SNORD22 /// SNORD25 /// SNORD26 /// SNORD27 /// SNORD28 /// SNORD29 /// SNORD31 / Fold change (Aza/veh), C12orf56 (ProbeSet 11735607_a_at) / Fold change (ACY-1035/veh), C12orf56 (ProbeSet 11735607_a_at) / Fold change (Aza/veh), FGFR1OP (ProbeSet 11751329_s_at) / Fold change (ACY-1035/veh), FGFR1OP (ProbeSet 11751329_s_at) / Fold change (Aza/veh), VPS36 (ProbeSet 11739960_a_at) / Fold change (ACY-1035/veh), VPS36 (ProbeSet 11739960_a_at) / RFU SYPL1 (11715823_x_at) / Fold change /veh SYPL1 (11715823_x_at) / RFU IGFBP7 (11715501_s_at) / Fold change /veh IGFBP7 (11715501_s_at) / RFU REEP3 (11722064_at) / Fold change /veh REEP3 (11722064_at) / RFU IGLL1 (11728026_x_at) / Fold change /veh IGLL1 (11728026_x_at): dose or concentration left out as unconfirmed
# Details: ProbeSet 11756954_s_at; LIST B
compound,measurement,value
Nc1ccc(-c2cccs2)cc1NC(=O)c1ccc2c(c1)cc(C1CC1)n2CCN1CCOCC1 [ACY-1035],"Fold change vs veh, ZEB2",0.85
